Bounds are passed on as bounds.

One experiment deals with TACE enzyme (Homo sapiens, UniProt P78536). Nature of the experiment: Enzymatic test of TACE inhibition (fluorescent substrate). The class given is biochemical.
Another experiment has as its target MMP1 (Homo sapiens (Human), UniProt P03956). The experiment is described as follows: Selectivity test, MMP1. The class given is biochemical.
The target of another experiment is MMP3 (Homo sapiens (Human), UniProt P08254). Nature of the experiment: Selectivity test, MMP3. The class given is biochemical.
For the next experiment, the target named is MMP9 (Homo sapiens (Human), UniProt P14780). Nature of the experiment: Selectivity test, MMP9. The class given is biochemical.
For the next experiment, the target named is ADAM10 (Homo sapiens (Human), UniProt O14672). The experiment is described as follows: Selectivity test, ADAM10. The class given is biochemical.
The next experiment deals with ADAM9 (Homo sapiens (Human), UniProt Q13443). Nature of the experiment: biochemical.
[1] abbreviates: enzymatic test, substrate 40 μM.

MMP1, sequence (P03956 100-469): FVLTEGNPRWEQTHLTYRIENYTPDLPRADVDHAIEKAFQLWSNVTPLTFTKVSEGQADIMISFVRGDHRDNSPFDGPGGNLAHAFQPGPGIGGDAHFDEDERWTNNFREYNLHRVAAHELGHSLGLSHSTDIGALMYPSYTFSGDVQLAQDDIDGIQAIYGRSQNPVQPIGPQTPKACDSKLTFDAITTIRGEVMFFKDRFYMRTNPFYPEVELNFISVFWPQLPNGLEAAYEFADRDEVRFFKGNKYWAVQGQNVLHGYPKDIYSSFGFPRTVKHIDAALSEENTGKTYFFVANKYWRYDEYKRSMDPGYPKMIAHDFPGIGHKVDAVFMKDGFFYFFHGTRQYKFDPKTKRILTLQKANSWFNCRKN
MMP3, sequence (P08254 100-477): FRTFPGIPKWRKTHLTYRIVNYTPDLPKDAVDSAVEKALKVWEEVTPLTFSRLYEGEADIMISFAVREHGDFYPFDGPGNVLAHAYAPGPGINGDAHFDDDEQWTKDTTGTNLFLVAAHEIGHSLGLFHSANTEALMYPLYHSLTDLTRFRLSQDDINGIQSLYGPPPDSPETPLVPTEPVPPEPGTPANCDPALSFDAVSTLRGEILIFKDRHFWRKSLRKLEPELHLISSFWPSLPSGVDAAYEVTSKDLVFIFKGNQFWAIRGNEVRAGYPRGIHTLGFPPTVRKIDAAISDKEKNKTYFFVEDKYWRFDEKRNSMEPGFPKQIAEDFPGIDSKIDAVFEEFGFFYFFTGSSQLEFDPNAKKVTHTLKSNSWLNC
TACE enzyme, sequence (P78536 215-824 limits assumed): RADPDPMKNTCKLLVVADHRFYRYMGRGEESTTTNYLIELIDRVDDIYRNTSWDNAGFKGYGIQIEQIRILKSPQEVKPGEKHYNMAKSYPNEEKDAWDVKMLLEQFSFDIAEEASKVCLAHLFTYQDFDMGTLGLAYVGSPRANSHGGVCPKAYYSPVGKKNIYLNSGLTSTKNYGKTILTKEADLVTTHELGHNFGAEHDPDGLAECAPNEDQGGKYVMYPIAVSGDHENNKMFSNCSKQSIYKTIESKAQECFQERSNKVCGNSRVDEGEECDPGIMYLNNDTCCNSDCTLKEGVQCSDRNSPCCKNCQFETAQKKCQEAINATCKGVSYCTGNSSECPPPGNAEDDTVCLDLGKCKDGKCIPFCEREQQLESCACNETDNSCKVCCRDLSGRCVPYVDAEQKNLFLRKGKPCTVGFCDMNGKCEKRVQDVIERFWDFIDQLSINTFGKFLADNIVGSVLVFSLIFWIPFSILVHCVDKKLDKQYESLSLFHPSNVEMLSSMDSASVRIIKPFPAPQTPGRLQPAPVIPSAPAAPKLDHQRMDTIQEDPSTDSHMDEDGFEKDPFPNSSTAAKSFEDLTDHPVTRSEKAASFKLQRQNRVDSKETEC
ADAM10, sequence (O14672 214-748): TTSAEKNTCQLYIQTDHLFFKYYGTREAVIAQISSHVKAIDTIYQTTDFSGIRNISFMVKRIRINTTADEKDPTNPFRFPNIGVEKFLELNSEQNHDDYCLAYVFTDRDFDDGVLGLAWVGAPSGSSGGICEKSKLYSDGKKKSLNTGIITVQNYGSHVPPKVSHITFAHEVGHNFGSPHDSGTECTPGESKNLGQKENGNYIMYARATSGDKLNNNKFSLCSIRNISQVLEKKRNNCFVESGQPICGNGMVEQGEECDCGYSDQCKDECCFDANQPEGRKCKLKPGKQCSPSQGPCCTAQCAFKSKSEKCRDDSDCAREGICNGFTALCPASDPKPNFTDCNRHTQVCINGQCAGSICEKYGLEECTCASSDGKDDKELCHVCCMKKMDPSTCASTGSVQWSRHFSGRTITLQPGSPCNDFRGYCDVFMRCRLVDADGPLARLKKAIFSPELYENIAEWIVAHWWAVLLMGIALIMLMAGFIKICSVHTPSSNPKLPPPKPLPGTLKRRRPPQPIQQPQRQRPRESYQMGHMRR
MMP9, sequence (P14780 94-707): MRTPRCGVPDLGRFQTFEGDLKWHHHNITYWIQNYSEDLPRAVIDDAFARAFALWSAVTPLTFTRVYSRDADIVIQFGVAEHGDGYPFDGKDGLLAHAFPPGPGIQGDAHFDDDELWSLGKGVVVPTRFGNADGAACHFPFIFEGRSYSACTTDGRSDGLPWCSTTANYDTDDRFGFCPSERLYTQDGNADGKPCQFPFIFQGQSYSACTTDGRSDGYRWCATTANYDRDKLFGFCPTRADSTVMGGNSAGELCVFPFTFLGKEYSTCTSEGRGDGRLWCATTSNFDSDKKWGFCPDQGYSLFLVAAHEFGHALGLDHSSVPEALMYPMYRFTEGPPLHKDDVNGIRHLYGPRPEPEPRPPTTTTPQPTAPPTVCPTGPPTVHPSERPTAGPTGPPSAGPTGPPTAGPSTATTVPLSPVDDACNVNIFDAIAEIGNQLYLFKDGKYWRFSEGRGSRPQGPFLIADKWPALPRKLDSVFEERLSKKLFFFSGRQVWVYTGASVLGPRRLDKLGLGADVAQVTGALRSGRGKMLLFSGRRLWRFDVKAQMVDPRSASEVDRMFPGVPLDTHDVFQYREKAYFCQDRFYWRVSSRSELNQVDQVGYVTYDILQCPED
ADAM9, sequence (Q13443 29-819): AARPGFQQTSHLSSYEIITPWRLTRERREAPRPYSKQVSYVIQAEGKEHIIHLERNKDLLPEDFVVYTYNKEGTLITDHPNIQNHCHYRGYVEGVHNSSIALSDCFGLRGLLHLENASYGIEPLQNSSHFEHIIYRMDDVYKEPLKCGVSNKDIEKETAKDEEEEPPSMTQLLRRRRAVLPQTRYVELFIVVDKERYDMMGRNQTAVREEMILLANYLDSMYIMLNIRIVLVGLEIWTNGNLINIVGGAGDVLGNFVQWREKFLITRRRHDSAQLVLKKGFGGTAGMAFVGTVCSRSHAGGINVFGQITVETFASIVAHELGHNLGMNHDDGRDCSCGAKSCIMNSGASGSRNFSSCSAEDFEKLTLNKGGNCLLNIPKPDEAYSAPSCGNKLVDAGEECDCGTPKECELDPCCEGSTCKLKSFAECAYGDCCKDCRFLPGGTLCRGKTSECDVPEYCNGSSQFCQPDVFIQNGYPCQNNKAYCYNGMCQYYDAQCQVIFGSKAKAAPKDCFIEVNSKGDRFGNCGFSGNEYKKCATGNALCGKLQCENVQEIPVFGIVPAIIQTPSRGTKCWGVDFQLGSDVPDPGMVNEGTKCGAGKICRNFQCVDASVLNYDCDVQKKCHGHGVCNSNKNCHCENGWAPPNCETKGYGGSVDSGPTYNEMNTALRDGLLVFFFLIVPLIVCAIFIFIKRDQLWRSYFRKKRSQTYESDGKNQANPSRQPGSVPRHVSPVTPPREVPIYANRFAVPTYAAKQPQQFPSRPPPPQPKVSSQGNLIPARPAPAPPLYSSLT

As a reminder, the IC50 is the concentration needed to halve the response being measured. Higher therefore signals a need for much substance. On to `COc1ccc(COc2ccc(C(=O)NC[C@@H](C(=O)NO)N3CCN(S(C)(=O)=O)CC3)cc2)cc1` [Example 17, N—[(S)-2-Hydroxycarbamoyl-2-(4-methane-sulphonylpiperazin-1-yl)ethyl]-4-(4-methoxybenzyloxy)-benzamide], for which, on TACE enzyme, the “% TACE inhibition at 10 μM” value is on record as 98%. On TACE enzyme (setting [1]), inhibition was half-maximal at 70 nM (IC50).
The matching figures for `CS(=O)(=O)N1CCN([C@@H](CNC(=O)c2ccc(OCc3ccnc4ccccc34)cc2)C(=O)NO)CC1` [Example 21, N—[(S)-2-hydroxycarbamoyl-2-(4-methane-sulphonylpiperazin-1-yl)ethyl]-4-(quinolin-4-ylmethoxy)benzamide]: 96% and 118 nM.
The matching figures for `Cc1cc(COc2ccc(C(=O)NC[C@@H](C(=O)NO)N3CCN(S(=O)(=O)C(C)C)CC3)cc2)c2ccccc2n1` [Example 23, N-{(S)-2-Hydroxycarbamoyl-2-[4-(propane-2-sulphonyl)piperazin-1-yl]ethyl}-4-(2-methylquinolin-4-ylmethoxy)benzamide]: 97% and 102 nM.
As for `CS(=O)(=O)N1CCN([C@@H](CNC(=O)c2ccc(OCc3ccccc3)cc2)C(=O)NO)CC1` [Example 6, 4-benzyloxy-N—[(S)-2-hydroxycarbamoyl-2-(4-methanesulphonylpiperazin-1-yl)ethyl]benzamide], the “% TACE inhibition at 10 μM” value at TACE enzyme was determined as 100%. At TACE enzyme (setting [1]), the IC50 stood at 40 nM.
In the case of `Cc1cc(COc2ccc(C(=O)NC[C@@H](C(=O)NO)N3CCN(S(C)(=O)=O)CC3)cc2)c2ccccc2n1.Cl.Cl` [Example 24, N—[(S)-2-Hydroxycarbamoyl-2-(4-methane-sulphonylpiperazin-1-yl)ethyl]-4-(2-methylquinolin-4-ylmethoxy)benzamide dihydrochloride], the “% TACE inhibition at 10 μM” value at TACE enzyme is recorded as 98%.
On to `COc1ccc(C(=O)NC[C@@H](C(=O)NO)N2CCN(S(C)(=O)=O)CC2)cc1` [Example 4, N—[(S)-2-hydroxycarbamoyl-2-(4-methane-sulphonylpiperazin-1-yl)ethyl]-4-methoxybenzamide], for which the “% TACE inhibition at 10 μM” value at TACE enzyme is reported as 100%. This compound also registered an IC50 against TACE enzyme (setting [1]) of 160 nM.
On the same counts, the results for `CC#CCOc1ccc(C(=O)NC[C@@H](C(=O)NO)N2CCN(S(=O)(=O)c3ccc(C)cc3)CC2)cc1` [Example 8, 4-but-2-ynyloxy-N-{(S)-2-hydroxycarbamoyl-2-[4-(toluene-4-sulphonyl)piperazin-1-yl]ethyl}benzamide] are 100% and 54 nM.
`Cc1ccc(COc2ccc(C(=O)NC[C@@H](C(=O)NO)N3CCN(S(C)(=O)=O)CC3)cc2)cc1` [Example 11, N—[(S)-2-hydroxycarbamoyl-2-(4-methane-sulphonylpiperazin-1-yl)ethyl]-4-(4-methylbenzyloxy)-benzamide]: the “% TACE inhibition at 10 μM” value on TACE enzyme is 96%. At TACE enzyme (setting [1]), the midpoint of inhibition, the IC50, lay at 95 nM.
On the same counts, the results for `CC#CCOc1ccc(C(=O)NCC(C(=O)NO)N2CCN(S(C)(=O)=O)CC2)cc1` (stereo not drawn) [Example 1, 4-But-2-ynyloxy-N-[2-hydroxycarbamoyl-2-(4-methanesulphonylpiperazin-1-yl)ethyl]benzamide] are 100% and 32 nM.
The matching figures for `CS(=O)(=O)N1CCN([C@@H](CNC(=O)c2ccc(OCC#CCO)cc2)C(=O)NO)CC1` [Example 16, 4-(4-Hydroxybut-2-ynyloxy)-N—[(S)-2-hydroxycarbamoyl-2-(4-methanesulphonylpiperazin-1-yl)-ethyl]benzamide]: 97% and 35 nM.
For `CC#CCOc1ccc(C(=O)NC[C@@H](C(=O)NO)N2CCN(S(C)(=O)=O)CC2)cc1` [Example 2, 4-But-2-ynyloxy-N—[(S)-2-hydroxycarbamoyl-2-(4-methanesulphonylpiperazin-1-yl)ethyl]benzamide], the “% TACE inhibition at 10 μM” value at TACE enzyme came out at 100%. Moreover, the IC50 is 28 nM against TACE enzyme (setting [1]); 28 nM against TACE enzyme (selectivity table); more than 10 µM on MMP1; 6.31 µM against MMP3; more than 10 µM against MMP9.
With `CS(=O)(=O)N1CCN([C@@H](CNC(=O)c2ccc(OCc3ccc(F)cc3)cc2)C(=O)NO)CC1` [Example 9, 4-(4-fluorobenzyloxy)-N—[(S)-2-hydroxycarbamoyl-2-(4-methanesulphonylpiperazin-1-yl)ethyl]benzamide], the “% TACE inhibition at 10 μM” value on TACE enzyme is given as 98%. The half-inhibitory concentration (IC50) against TACE enzyme (setting [1]) stood at 21 nM.
On the same counts, the results for `CS(=O)(=O)N1CCN([C@@H](CNC(=O)c2ccc(OCC3CC3)cc2)C(=O)NO)CC1` [Example 5, 4-cyclopropylmethoxy-N—[(S)-2-hydroxycarbamoyl-2-(4-methanesulphonylpiperazin-1-yl)ethyl]benzamide] are 100% and 200 nM.
The matching figures for `CC#CCOc1ccc(C(=O)N(C)C[C@@H](C(=O)NO)N2CCN(S(C)(=O)=O)CC2)cc1` [Example 13, 4-But-2-ynyloxy-N—[(S)-2-hydroxycarbamoyl-2-(4-methanesulphonylpiperazin-1-yl)ethyl]-N-methylbenzamide]: 98% and 22 nM.
Take `O=C(NCC(C(=O)NO)N1CCN(Cc2ccccc2)CC1)c1ccc(OCc2c(C(F)(F)F)nn3ccccc23)cc1` (stereo not drawn) [Example 27, N-[2-(4-Benzylpiperazin-1-yl)-2-hydroxycarbamoylethyl]-4-(2-trifluoromethylpyrazolo[1,5-a]pyridin-3-ylmethoxy)benzamide]: on TACE enzyme, the “% TACE inhibition at 10 μM” value came to 95%. Besides, the IC50 at MMP1, against MMP3, on MMP9, on ADAM10 and at ADAM9 was more than 10 µM throughout.
Consider `CS(=O)(=O)N1CCN([C@@H](CNC(=O)c2ccc(OCc3ccc(C(F)(F)F)cc3)cc2)C(=O)NO)CC1` [Example 10, N—[(S)-2-hydroxycarbamoyl-2-(4-methane-sulphonylpiperazin-1-yl)ethyl]-4-(4-trifluoromethyl-benzyloxy)benzamide], for which the “% TACE inhibition at 10 μM” value at TACE enzyme was 97%. For the same compound, the IC50 against TACE enzyme (setting [1]) was found to be 117 nM.
The matching figures for `CCN1CCN([C@@H](CNC(=O)c2ccc(OCc3cc(C)nc4ccccc34)cc2)C(=O)NO)CC1` [Example 25, N—[(S)-2-(4-Ethylpiperazin-1-yl)-2-hydroxycarbamoylethyl]-4-(2-methylquinolin-4-ylmethoxy)-benzamide]: 90% and 45 nM.
The matching figures for `Cc1ccc2ccccc2c1COc1ccc(C(=O)NC[C@@H](C(=O)NO)N2CCN(S(C)(=O)=O)CC2)cc1` [Example 19, N—[(S)-2-Hydroxycarbamoyl-2-(4-methane-sulphonylpiperazin-1-yl)ethyl]-4-(2-methylnaphthalen-1-ylmethoxy)benzamide]: 90% and 138 nM.
In the case of `Cc1cc(COc2ccc(C(=O)NC[C@@H](C(=O)NO)N3CCN(Cc4ccccc4)CC3)cc2)c2ccccc2n1` [Example 22, N—[(S)-2-(4-Benzylpiperazin-1-yl)-2-hydroxycarbamoylethyl]-4-(2-methylquinolin-4-yl-methoxy)benzamide], the “% TACE inhibition at 10 μM” value at TACE enzyme is listed as 97%. The compound also had a concentration for half-maximal inhibition (IC50) on TACE enzyme (setting [1]) of 79 nM.
The matching figures for `CS(=O)(=O)N1CCN([C@@H](CNC(=O)c2ccc(OCc3ccncc3)cc2)C(=O)NO)CC1` [Example 18, N—[(S)-2-Hydroxycarbamoyl-2-(4-methane-sulphonylpiperazin-1-yl)ethyl]-4-(pyridin-4-ylmethoxy)-benzamide]: 98% and 99 nM.
As for `Cc1cc(COc2ccc(C(=O)NC[C@@H](C(=O)NO)N3CCN(S(C)(=O)=O)CC3)cc2)c2ccccc2n1` [Example 14, N—[(S)-2-Hydroxycarbamoyl-2-(4-methane-sulphonylpiperazin-1-yl)ethyl]-4-(2-methylquinolin-4-ylmethoxy)benzamide], the “% TACE inhibition at 10 μM” value on TACE enzyme stood at 98%. For the same compound, the IC50 against MMP1 is 2.61 µM; against MMP3 it was 6.83 µM; against ADAM10, 5.79 µM.

The values above are taken from US9115102B2, “N-[2-hydroxycarbamoyl-2-(piperazinyl) ethyl] benzamide compounds, their preparation and their use as TACE inhibitors” (GALDERMA RESEARCH & DEVELOPMENT, priority 2009, dated 2015).
